Columns and labels:
[1] = target: T1, Adrenergic receptor alpha-1 (Rattus norvegicus, UniProt P15823+P23944+P43140); assay: Inhibition of alpha-1 adrenergic receptor isolated from rat ventricle homogenates
T1 sequence (P15823 whole entry): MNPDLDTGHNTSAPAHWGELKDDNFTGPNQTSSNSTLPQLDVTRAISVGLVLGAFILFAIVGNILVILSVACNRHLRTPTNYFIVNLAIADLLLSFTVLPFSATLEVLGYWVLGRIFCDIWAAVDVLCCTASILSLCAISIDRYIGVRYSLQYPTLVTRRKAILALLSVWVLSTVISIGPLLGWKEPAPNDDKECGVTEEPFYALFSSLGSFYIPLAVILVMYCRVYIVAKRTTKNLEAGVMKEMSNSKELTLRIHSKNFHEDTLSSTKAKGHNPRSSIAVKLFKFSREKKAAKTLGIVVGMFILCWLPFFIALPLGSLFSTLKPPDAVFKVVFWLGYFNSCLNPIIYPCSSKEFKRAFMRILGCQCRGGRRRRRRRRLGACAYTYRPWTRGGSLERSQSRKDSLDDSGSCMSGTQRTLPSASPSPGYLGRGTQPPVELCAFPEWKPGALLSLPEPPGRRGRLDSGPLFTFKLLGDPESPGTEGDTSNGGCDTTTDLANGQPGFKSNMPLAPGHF
T1 sequence (P23944 whole entry): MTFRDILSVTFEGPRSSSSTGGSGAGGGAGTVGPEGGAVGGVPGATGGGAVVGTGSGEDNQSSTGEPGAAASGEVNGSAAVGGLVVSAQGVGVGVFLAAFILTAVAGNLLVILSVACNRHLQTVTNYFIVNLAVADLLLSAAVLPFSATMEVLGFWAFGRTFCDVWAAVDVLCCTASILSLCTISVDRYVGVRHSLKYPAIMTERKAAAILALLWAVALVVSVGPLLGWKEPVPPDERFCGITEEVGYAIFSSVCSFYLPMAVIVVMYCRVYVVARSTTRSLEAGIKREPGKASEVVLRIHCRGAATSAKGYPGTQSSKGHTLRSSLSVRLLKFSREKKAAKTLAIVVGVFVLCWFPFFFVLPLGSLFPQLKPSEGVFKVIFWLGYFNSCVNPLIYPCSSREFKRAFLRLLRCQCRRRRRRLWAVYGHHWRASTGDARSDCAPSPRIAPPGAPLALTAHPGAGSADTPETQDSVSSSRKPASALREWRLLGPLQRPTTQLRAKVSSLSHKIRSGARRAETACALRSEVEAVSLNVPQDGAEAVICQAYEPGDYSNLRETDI
T1 sequence (P43140 whole entry): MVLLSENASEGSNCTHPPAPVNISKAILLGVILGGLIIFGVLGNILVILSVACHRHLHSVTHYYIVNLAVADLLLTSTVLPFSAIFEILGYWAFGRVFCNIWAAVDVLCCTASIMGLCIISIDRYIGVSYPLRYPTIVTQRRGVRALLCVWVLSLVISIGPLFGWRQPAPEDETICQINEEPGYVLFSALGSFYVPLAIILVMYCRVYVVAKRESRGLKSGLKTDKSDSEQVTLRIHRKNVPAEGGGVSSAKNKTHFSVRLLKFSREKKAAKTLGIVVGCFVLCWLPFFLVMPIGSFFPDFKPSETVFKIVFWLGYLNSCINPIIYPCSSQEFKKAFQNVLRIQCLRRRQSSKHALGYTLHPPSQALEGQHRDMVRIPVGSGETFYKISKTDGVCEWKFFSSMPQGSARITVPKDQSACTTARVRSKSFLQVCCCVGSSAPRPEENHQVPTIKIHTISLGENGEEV

Adrenergic receptor beta [2] = target: T2, Adrenergic receptor beta (Rattus norvegicus, UniProt P18090+P10608+P26255); assay: Inhibition of beta adrenergic receptor isolated from rat ventricle homogenates.
Cavia porcellus [3] = species: Cavia porcellus; assay: Chronotropic effect studied in right atria isolated from guinea pig and is expressed in pA2.; conditions: read-out: pA2 (converted)
Rattus norvegicus [4] = species: Rattus norvegicus; assay: The compound was tested for percent increase in heart rate with respect to that measured after isoprenaline in 5-10 animals.; assay type: functional
Rattus norvegicus [5] = assay: Tested for MED (smallest dose giving maximum effect) evaluated by dose-response curve, from 0.1 to 5 mg/kg in 5-10 animals on iv administration.; assay type: functional; conditions: dose mg/kg 0.1-5
Cavia porcellus [6] = species: Cavia porcellus; assay: Ionotropic effect in electrically driven left atrial preparation (Atria isolated from guinea pig) and is expressed in pA2.; conditions: Cardiac atrium, read-out: pA2 (converted)
[7] = target: T3, Adrenergic receptor beta (Rattus norvegicus) (UniProt P18090+P10608+P26255)
Rattus norvegicus [8] = species: Rattus norvegicus; assay: The compound was tested for percent increase in heart rate with respect to that measured after isoprenaline in 5-10 animals and showing significant increase (p <= 0.05) with respect to baseline values (293 +/- 7 to 310 +/- 5 […]).; assay type: functional
[9] = target: Beta-1 adrenergic receptor (Cavia porcellus); assay: Beta-1 adrenergic receptor-Antagonism in isolated guinea pig atria. ( for R-enantiomer); conditions: read-out: pA2 app (converted)
[10] = target: T3, Adrenergic receptor beta (Rattus norvegicus); assay: In vitro inhibitory specificity for Beta adrenergic receptor was evaluated; ND=not determined; assay type: protein assay
Adrenergic receptor beta [11] = target: T2, Adrenergic receptor beta; assay: The compound was tested for the concentration to inhibit 50% of Beta adrenergic receptor isolated from rat ventricle homogenates; ND=not determined
Adrenergic receptor beta [12] = target: T2, Adrenergic receptor beta; assay: The compound was tested for the concentration to inhibit 50% of Beta adrenergic receptor isolated from rat ventricle homogenates.; assay type: functional

IC50 [1] [nM]	IC50 (Adrenergic receptor beta [2]) [nM]	Specificity [7]	Kb [9] [nM]	Specificity [10]	IC50 (Adrenergic receptor beta [11]) [nM]	IC50 (Adrenergic receptor beta [12]) [nM]	Structure (SMILES)	Kb (Cavia porcellus [3]) [nM]	Increase (Rattus norvegicus [4]) [%]	MED (Rattus norvegicus [5]) [µmol/kg]	Kb (Cavia porcellus [6]) [nM]	Increase (Rattus norvegicus [8]) [%]
–	–	–	–	–	–	–	Cc1cccc(NCC(O)CON=C(C2CC2)C2CC2)n1 (stereo not drawn)	10000	–	–	–	–
53000	108	490	–	–	–	–	OC(CNc1ccccc1I)CON=C(C1CC1)C1CC1 (stereo not drawn)	1260	10	5.7	2510	–
30700	7	4390	–	–	–	–	CCCCc1ccc(NCC(O)CON=C(C2CC2)C2CC2)cc1 (stereo not drawn)	79.4	10	2.7	251	–
18700	11.4	1640	–	–	–	–	OC(CNc1ccc(Cl)cc1)CON=C(C1CC1)C1CC1 (stereo not drawn)	39.8	–	2.1	126	47
–	–	–	–	–	–	–	CC(C)(N)Cc1ccc(NCC(O)CON=C(C2CC2)C2CC2)cc1 (stereo not drawn)	501	–	–	–	–
> 100000	13.8	> 7250	–	–	–	–	OC(CNc1ccc(C(F)(F)F)cc1)CON=C(C1CC1)C1CC1 (stereo not drawn)	63.1	–	2.2	126	47
36400	35.6	1020	–	–	–	–	OC(CNc1ccccn1)CON=C(C1CC1)C1CC1 (stereo not drawn)	79.4	0	4.4	63.1	–
> 100000	501	> 200	–	–	–	–	Cc1cccc(NCC(O)CON=C(C2CC2)C2CC2)c1 (stereo not drawn)	100	–	9.2	126	42
26200	12.4	2120	–	–	–	–	OC(CNc1ccc(F)cc1)CON=C(C1CC1)C1CC1 (stereo not drawn)	631	–	2.4	1260	74
19000	7.9	2400	–	–	–	–	O=[N+]([O-])c1ccc(NCC(O)CON=C(C2CC2)C2CC2)cc1 (stereo not drawn)	100	10	1.8	251	–
22000	13	1690	–	–	–	–	Cc1ccccc1NCC(O)CON=C(C1CC1)C1CC1 (stereo not drawn)	126	–	5.3	251	37
37300	10	3570	–	–	–	–	O=C(O)c1ccc(NCC(O)CON=C(C2CC2)C2CC2)cc1 (stereo not drawn)	100	–	2.3	631	65
15000	7.6	1970	12.6	–	–	–	Cc1ccc(NCC(O)CON=C(C2CC2)C2CC2)cc1 (stereo not drawn)	12.6	–	2.5	10	64
70800	3.4	20800	11	–	–	–	CC(C)(C)c1ccc(NCC(O)CON=C(C2CC2)C2CC2)cc1 (stereo not drawn)	12.6	–	2	50.1	44
–	–	–	–	–	–	–	Cc1ccc(NCC(O)CON=C(C2CC2)C2CC2)nc1 (stereo not drawn)	25100	–	–	–	–
> 100000	630	> 160	–	–	–	–	OC(CNc1cccc(I)c1)CON=C(C1CC1)C1CC1 (stereo not drawn)	5010	–	7.8	3160	42
19000	4.1	4630	–	–	–	–	OC(CNc1ccc(Br)cc1)CON=C(C1CC1)C1CC1 (stereo not drawn)	20	10	2.1	100	–
–	–	–	–	–	–	–	CN(CC(O)CON=C(C1CC1)C1CC1)c1ccccc1 (stereo not drawn)	794000	–	–	–	–
95100	12.8	7430	–	–	–	–	CCOC(=O)c1ccc(NCC(O)CON=C(C2CC2)C2CC2)cc1 (stereo not drawn)	79.4	10	2.4	251	–
28300	–	–	–	2730	10.4	–	Oc1ccc(NCC(O)CON=C(C2CC2)C2CC2)cc1 (stereo not drawn)	79.4	10	3.1	200	–
27500	4.1	6700	–	–	–	–	OC(CNc1ccc(I)cc1)CON=C(C1CC1)C1CC1 (stereo not drawn)	15.8	–	1.6	63.1	64
12600	–	3700	–	–	–	3.4	CC(C)(Cc1ccc(NCC(O)CON=C(C2CC2)C2CC2)cc1)[N+](=O)[O-] (stereo not drawn)	20	10	2.4	79.4	–
–	–	–	–	–	–	–	CC(C)NCC(O)COc1cccc2ccccc12 (stereo not drawn) [PROPRANOLOL]	–	0	3	–	–

Structure (SMILES)	IC50 [1] [nM]	IC50 (Adrenergic receptor beta [2]) [nM]	Specificity [7]	Kb [9] [nM]	Specificity [10]	IC50 (Adrenergic receptor beta [11]) [nM]	IC50 (Adrenergic receptor beta [12]) [nM]	Kb (Cavia porcellus [3]) [nM]	Increase (Rattus norvegicus [4]) [%]	MED (Rattus norvegicus [5]) [µmol/kg]	Kb (Cavia porcellus [6]) [nM]	Increase (Rattus norvegicus [8]) [%]
Cc1ccnc(NCC(O)CON=C(C2CC2)C2CC2)c1 (stereo not drawn)	15300	23.9	640	–	–	–	–	31.6	0	2.6	79.4	–
OC(CNc1ccc(-c2ccccc2)cc1)CON=C(C1CC1)C1CC1 (stereo not drawn)	3100	4.5	690	–	–	–	–	10	–	1	39.8	70
OC(CNc1ccccc1)CON=C(C1CC1)C1CC1 (stereo not drawn)	13000	3.3	3940	–	–	–	–	39.8	10	2.7	126	–
OC(CNc1nc2ccccc2s1)CON=C(C1CC1)C1CC1 (stereo not drawn)	> 100000	3.4	> 29400	–	–	–	–	15.8	10	4.1	25.1	–
OC(CNc1nc2ccccc2[nH]1)CON=C(C1CC1)C1CC1 (stereo not drawn)	> 100000	13.2	> 7580	–	–	–	–	63.1	10	2	100	–
OC(CNc1ccccc1-c1ccccc1)CON=C(C1CC1)C1CC1 (stereo not drawn)	> 100000	998	> 100	–	–	–	–	100000	0	> 12.9	25100	–
OC(CNc1ccncc1)CON=C(C1CC1)C1CC1 (stereo not drawn)	72300	32.3	2240	–	–	–	–	63.1	0	3.7	251	–
